According to US20110105389A1 (priority 2009, published 2011):
Where “and” joins values, the source holds several entries; their conditions need not be identical. Equal values may be shown once. Read-outs that look alike come from different tables or passages of the source.

Tests used:
[1] = biological target: T1, ghrelin receptor (HEK-GHSR1 stable cells) (Homo sapiens, UniProt Q92847); test: Ghrelin receptor inverse agonist assay (HTRF IP-one), Method B4; assay type: cell-based
T1 construct: expressed in transfected cells
T1 sequence (Q92847 whole entry): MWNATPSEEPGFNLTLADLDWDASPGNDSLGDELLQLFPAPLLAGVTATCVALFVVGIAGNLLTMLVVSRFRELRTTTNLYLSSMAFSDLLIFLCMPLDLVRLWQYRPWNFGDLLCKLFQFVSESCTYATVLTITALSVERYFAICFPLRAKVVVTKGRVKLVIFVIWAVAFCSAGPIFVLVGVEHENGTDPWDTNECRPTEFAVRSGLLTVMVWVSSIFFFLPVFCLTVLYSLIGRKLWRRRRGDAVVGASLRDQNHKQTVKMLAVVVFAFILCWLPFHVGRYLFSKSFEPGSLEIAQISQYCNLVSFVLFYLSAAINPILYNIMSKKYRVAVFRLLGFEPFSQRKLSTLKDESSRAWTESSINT
Procedure, shortened: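 HEK cells stably expressing GHSR1, seeded at 100 000 cells/well overnight, exposed to compound for 30 min at 37° C. Cells then lysed and IP1 accumulation measured by HTRF (d2 plus anti-IP1 cryptate, 1 h at room temp). Wells lacking d2 served as negative control.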

[2] = Plasma protein binding (equilibrium dialysis), Method B5; assay type: in vitro ADME; details: 60 min at 37° C., typically 10 μM; for fraction unbound at 60 min, 10 μM: human plasma
Text: B5. Plasma Protein Binding
The pharmacokinetic and pharmacodynamic properties of drugs are largely a function of the reversible binding of drugs to plasma or serum proteins such as albumin and α1-acid glycoprotein. In general, only unbound drug is available for diffusion or transport across cell membranes, and for interaction at the pharmacological target. On the other hand, drugs with low plasma protein binding generally have large volumes of distribution and rapid clearance since only unbound drug is available for glomerular filtration and, in some cases, hepatic clearance. Thus, the extent of plasma protein binding can influence efficacy, distribution and elimination. The ideal range for plasma protein binding is in the range of 87-98% for most drug products.
Protein binding studies were performed using human plasma. Briefly, 96-well microplates were used to incubate various concentrations of the test article for 60 min at 37° C. A concentration of 10 μM was a typical selection to be employed in this study. Bound and unbound fractions are separated by equilibrium dialysis, where the concentration remaining in the unbound fraction is quantified by LC-MS or LC-MS-MS analysis. […].

[3] = tested on: rat stomach fundus strips; test: Ex-vivo potency evaluation on the rat stomach fundus (inhibition of ghrelin-induced contractility), Method B10; details: EFS
Protocol: B10. Ex-vivo Potency Evaluation on the Rat Stomach Fundus
Fundus strips (approximately 0.4×1 cm) were cut from the stomach of adult male Wistar rats parallel to the circular muscle fibers. They were placed between two platinum ring electrodes, 1 cm apart (Radnoti, ADlnstruments, USA) in 10 ml tissue baths containing Krebs solution bubbled with 5% CO2 in O2 and maintained at 37° C. Tissues were suspended under 1.5 g resting tension. Changes of tension were measured isometrically with force transducers and recorded with a PowerLab 8/30 data acquisition system (ADlnstruments, USA). Tissues were allowed to equilibrate for 60 min during which time bath solutions were changed every 15 min.
EFS was achieved by applying 0.5 ms pulses, 5 Hz frequency, at a maximally effective voltage of 70 V. EFS was applied for 30 sec at 3 min intervals for a 30 min initial period. This initial period was separated by a […] interval with wash out of the bath solution. Then, a second period of stimulation was started. […] Responses to the agents were measured and expressed as % of the mean of three or four pre-drug responses to EFS. All compounds were dissolved at 1 mM in distilled water or MeOH, as stock solutions.
IC50 values for the inhibition of ghrelin-induced contractility by representative compounds of the invention are presented in Table 7.

CYP2D6 = CYP2D6 (Homo sapiens, UniProt P10635); test: biochemical
CYP2D6, sequence (P10635 whole entry): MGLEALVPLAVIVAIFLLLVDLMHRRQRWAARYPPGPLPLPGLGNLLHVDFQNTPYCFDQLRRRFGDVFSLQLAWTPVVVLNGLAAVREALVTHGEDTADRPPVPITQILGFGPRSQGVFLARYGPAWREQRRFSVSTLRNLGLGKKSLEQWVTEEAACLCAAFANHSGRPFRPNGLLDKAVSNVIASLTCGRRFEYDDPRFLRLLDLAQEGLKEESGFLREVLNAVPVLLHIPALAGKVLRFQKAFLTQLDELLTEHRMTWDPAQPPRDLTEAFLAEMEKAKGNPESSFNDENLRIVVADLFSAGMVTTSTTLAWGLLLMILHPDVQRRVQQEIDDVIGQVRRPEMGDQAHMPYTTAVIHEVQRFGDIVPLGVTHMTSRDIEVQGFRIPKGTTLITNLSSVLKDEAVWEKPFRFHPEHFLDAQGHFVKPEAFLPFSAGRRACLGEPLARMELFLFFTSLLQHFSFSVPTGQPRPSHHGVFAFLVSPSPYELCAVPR

CYP3A4 = CYP3A4 (Homo sapiens, UniProt P08684); test: biochemical
CYP3A4, sequence (P08684 whole entry): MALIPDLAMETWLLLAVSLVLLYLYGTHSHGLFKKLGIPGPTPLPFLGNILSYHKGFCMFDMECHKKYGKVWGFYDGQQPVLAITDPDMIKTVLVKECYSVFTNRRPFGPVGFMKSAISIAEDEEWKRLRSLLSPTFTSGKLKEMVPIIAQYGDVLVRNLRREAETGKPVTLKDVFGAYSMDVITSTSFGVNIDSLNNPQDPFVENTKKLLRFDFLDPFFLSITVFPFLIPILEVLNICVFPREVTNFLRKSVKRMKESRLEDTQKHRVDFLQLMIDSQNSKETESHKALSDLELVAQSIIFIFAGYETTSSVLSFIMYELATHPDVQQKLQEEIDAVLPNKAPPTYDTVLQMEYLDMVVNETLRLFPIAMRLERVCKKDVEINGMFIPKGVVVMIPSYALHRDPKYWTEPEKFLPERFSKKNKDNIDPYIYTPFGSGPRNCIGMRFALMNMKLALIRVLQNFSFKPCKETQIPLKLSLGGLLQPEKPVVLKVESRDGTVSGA

[4] = Pharmacokinetic analysis (intravenous and oral), Method B9; assay type: in vivo; details: for % F: 2 mg/mL intravenous and 8 mg/mL oral typically employed; for Tmax: individual values; for Vd: read-out: Vz
Procedure, shortened: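 Compound concentration was typically 2 mg/mL for intravenous and 8 mg/mL for oral dosing. PK parameters such as elimination half-life and total plasma clearance were derived.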

[5] = inverse agonist at the ghrelin receptor, Method B4
[6] = Table 10b, 2 mg/mL intravenous typically employed
[7] = plasma, Oral, 8 mg/kg, read-out: Cmax
[8] = plasma, Table 10b, 2 mg/mL intravenous typically employed

Row | Structure (SMILES) | IC50 [3] [nM] | IC50 [1, 5] [nM] | Binding (%), Human Plasma Protein Binding [2] [%] | % F ([4]; Table 10b) [%] | Cl [4, 6] [mL/min/kg] | t1/2 [4, 6] [min] | further results
1 | Cc1cccc(C[C@H]2NC(=O)[C@H](C(C)O)N(C)C(=O)[C@H](C(C)C)NCCOc3ccccc3C[C@H](O)CNC2=O)c1 (some centres unmarked) [Compound 1453] | 2900 |  |  |  |  |  | IC50 [1]: 10 to 50 nM; fraction unbound at 60 min, 10 μM [2]: 0.243; IC50 (CYP2D6): 9.21 µM and 9.2 µM; IC50 (CYP3A4): 13.4 µM and 3.7 µM
2 | CC(C)[C@@H]1NCCOc2ccccc2C[C@H](O)[C@@H](C)NC(=O)[C@@H](Cc2cccc(F)c2)NC(=O)[C@H](C(C)O)N(C)C1=O (some centres unmarked) [Compound 1503] | 650 |  |  |  |  |  | IC50 [1]: 10 to 50 nM; fraction unbound at 60 min, 10 μM [2]: 0.221; IC50 (CYP2D6): 55.8 µM; IC50 (CYP3A4): 14.3 µM
3 | CC(C)C1NCCOc2ccccc2C#CCNC(=O)C(Cc2c[nH]c3ccccc23)NC(=O)C(C(C)O)N(C)C1=O (centres unmarked) [Compound 1692] |  | 100 to 500 | 98.2 |  |  |  | 
4 | CC(C)C1NCCOc2cc(F)ccc2C#CCNC(=O)C(Cc2c[nH]c3ccccc23)NC(=O)C(C(C)O)N(C)C1=O (centres unmarked) [Compound 1693] |  | 100 to 500 |  | 5 ± 2 | 35 ± 18 | 41 ± 4 | 
5 | CC(C)[C@@H]1NCCOc2ccccc2C#CCNC(=O)[C@@H](Cc2ccccc2)NC(=O)[C@H](C(C)O)N(C)C1=O (some centres unmarked) [Compound 1712] | 3.4 |  |  |  |  |  | IC50 [1]: 50 to 100 nM; fraction unbound at 60 min, 10 μM [2]: 0.024; F ([4]; Oral, 8 mg/kg): 15 ± 10%; Tmax ([4]; Oral, 8 mg/kg): 15/15/15; AUC(0-inf) ([4]; plasma, Intravenous, 2 mg/kg): 544 ng·h/mL; clearance ([4]; plasma, Intravenous, 2 mg/kg): 62 ± 10 mL/min/kg; half-life ([4]; plasma, Intravenous, 2 mg/kg): 138 ± 86 min; Vd ([4]; plasma, Intravenous, 2 mg/kg): 13.2 ± 9.57 L/kg; AUC(0-inf) ([4]; plasma, Oral, 8 mg/kg): 336 ng·h/mL; Cmax [4, 7]: 352 ± 297 ng/mL; IC50 (CYP3A4): 5.8 µM
6 | CC(O)[C@H]1C(=O)N[C@H](Cc2c[nH]c3ccccc23)C(=O)N[C@H](C)C#Cc2ccc(F)cc2O[C@H](C)CN[C@@H](C2(C)CC2)C(=O)N1C (some centres unmarked) [Compound 1720] |  | 100 to 500 |  |  | 33 ± 12 | 70 ± 15 | 
7 | CC[C@@H]1CCc2ccc(F)cc2OCCN[C@@H](C(C)C)C(=O)N(C)[C@@H](C(C)O)C(=O)N[C@H](Cc2ccc(O)cc2)C(=O)N1 (some centres unmarked) [Compound 1751] |  | 100 to 500 | 97.4 | 34 ± 19 | 32 ± 5 | 46 ± 1 | 
8 | CC(C)[C@@H]1NCC2CCc3cccc(c3O2)CCCNC(=O)[C@@H](Cc2ccccc2)NC(=O)[C@H](C(C)O)N(C)C1=O (some centres unmarked) [Compound 1777] | 7.8 | 50 to 100 | 95.8 |  |  |  | AUCinf ([4]; Intravenous, 2 mg/kg): 369904 ± 127112 ng·min/mL; Cl ([4]; Intravenous, 2 mg/kg): 6 ± 2 mL/min/kg; Vz ([4]; Intravenous, 2 mg/kg): 882 ± 272 mL/kg; t1/2 ([4]; Intravenous, 2 mg/kg): 107 ± 4 min; AUCinf ([4]; Oral, 8 mg/kg): 190433 ± 114760 ng·min/mL; Cmax ([4]; Oral, 8 mg/kg): 1075 ± 772 ng/mL; F ([4]; Oral, 8 mg/kg): 13 ± 8%; Tmax ([4]; Oral, 8 mg/kg): 15/30/15/15/15/15
9 | CC(C)[C@@H]1NCCOc2ccccc2C2CCC(C2)NC(=O)[C@@H](Cc2c[nH]c3ccccc23)NC(=O)[C@H](C(C)O)N(C)C1=O (some centres unmarked) [Compound 1843] | 2.3 | 10 to 50 | 92.1 |  |  |  | 
10 | CC(C)[C@@H]1NCCOc2ccccc2C2CCC(C2)NC(=O)[C@@H](Cc2ccccc2)NC(=O)[C@H](C(C)O)N(C)C1=O (some centres unmarked) [Compound 1848] | 15 |  |  |  |  |  | fraction unbound at 60 min, 10 μM [2]: 0.207; F ([4]; Oral, 8 mg/kg): 11 ± 2%; Tmax ([4]; Oral, 8 mg/kg): 30/30; AUC(0-inf) ([4]; plasma, Intravenous, 2 mg/kg): 2600 ng·h/mL; clearance ([4]; plasma, Intravenous, 2 mg/kg): 17 ± 9 mL/min/kg; half-life ([4]; plasma, Intravenous, 2 mg/kg): 108 ± 51 min; Vd ([4]; plasma, Intravenous, 2 mg/kg): 2.55 ± 1.47 L/kg; AUC(0-inf) ([4]; plasma, Oral, 8 mg/kg): 1110 ng·h/mL; Cmax [4, 7]: 421 ± 16 ng/mL; IC50 (CYP2D6): 14.1 µM; IC50 (CYP3A4): 8 µM
11 | CC(C)[C@@H]1NCCOc2ccccc2C2CCC(C2)NC(=O)[C@@H](Cc2ccc(F)cc2)NC(=O)[C@H](C(C)O)N(C)C1=O (some centres unmarked) [Compound 1903] | 1.6 |  |  |  |  |  | fraction unbound at 60 min, 10 μM [2]: 0.159; IC50 (CYP2D6): 8 µM; IC50 (CYP3A4): 9 µM
12 | CC(C)[C@@H]1NCCOc2cccc(F)c2C#CCNC(=O)[C@@H](Cc2ccccc2)NC(=O)[C@H](C(C)O)N(C)C1=O (some centres unmarked) [Compound 1929] | 2 |  |  |  |  |  | IC50 [1]: 50 to 100 nM; F ([4]; Oral, 8 mg/kg): 42 ± 51%; Tmax ([4]; Oral, 8 mg/kg): 15/15/30; AUC(0-inf) ([4]; plasma, Intravenous, 2 mg/kg): 1060 ng·h/mL; clearance ([4]; plasma, Intravenous, 2 mg/kg): 32 ± 4 mL/min/kg; half-life ([4]; plasma, Intravenous, 2 mg/kg): 170 ± 62 min; Vd ([4]; plasma, Intravenous, 2 mg/kg): 7.99 ± 3.7 L/kg; AUC(0-inf) ([4]; plasma, Oral, 8 mg/kg): 1790 ng·h/mL; Cmax [4, 7]: 628 ± 766 ng/mL; IC50 (CYP2D6): 25.7 µM

Further lines, with some results ahead:

Row | IC50 [3] [nM] | IC50 [1, 5] [nM] | Binding (%), Human Plasma Protein Binding [2] [%] | % F ([4]; Table 10b) [%] | Cl [4, 6] [mL/min/kg] | t1/2 [4, 6] [min] | Structure (SMILES) | further results
13 |  | 50 to 100 | 99.5 | 12 ± 6 | 9 ± 6 | 147 ± 52 | CCC1CCc2ccc(F)cc2OCCNC(C2(C)CC2)C(=O)N(C)C(C(C)O)C(=O)NC(Cc2c[nH]c3ccccc23)C(=O)N1 (centres unmarked) [Compound 1703] | 
14 |  | 100 to 500 | 99.6 |  | 8 ± 4 | 130 ± 26 | CC[C@@H]1C#Cc2ccc(F)cc2O[C@H](C)CN[C@@H](C2(C)CC2)C(=O)N(C)[C@@H](C(C)O)C(=O)N[C@H](Cc2c[nH]c3ccccc23)C(=O)N1 (some centres unmarked) [Compound 1707] | 
15 |  | 50 to 100 |  | 14 ± 9 | 30 ± 1 | 104 ± 25 | CC(O)[C@H]1C(=O)N[C@H](Cc2c[nH]c3ccccc23)C(=O)N[C@H](C)C#Cc2ccccc2OCCN[C@@H](C2(C)CC2)C(=O)N1C (some centres unmarked) [Compound 1713] | 
16 |  | 50 to 100 |  | 17 ± 6 | 5 ± 1 | 162 ± 4 | CC[C@@H]1C#Cc2ccccc2O[C@H](C)CN[C@@H](C2(C)CC2)C(=O)N(C)[C@@H](C(C)O)C(=O)N[C@H](Cc2c[nH]c3ccccc23)C(=O)N1 (some centres unmarked) [Compound 1718] | 
17 |  | 100 to 500 |  |  | 44 ± 3 | 93 ± 11 | CC(O)[C@H]1C(=O)N[C@H](Cc2c[nH]c3ccccc23)C(=O)N[C@H](C)CCc2ccc(F)cc2O[C@H](C)CN[C@@H](C2(C)CC2)C(=O)N1C (some centres unmarked) [Compound 1719] | 
18 |  | 50 to 100 | 99.8 | 14 ± 8 | 9 ± 6 | 171 ± 16 | CC[C@@H]1C#Cc2c(F)cccc2OCCN[C@@H](C(C)C)C(=O)N(C)[C@@H](C(C)O)C(=O)N[C@H](Cc2c[nH]c3ccccc23)C(=O)N1 (some centres unmarked) [Compound 1726] | 
19 |  | 50 to 100 |  | 59 ± 31 | 12 ± 1 | 107 ± 4 | CC[C@@H]1CCc2ccc(F)cc2OCCN[C@@H](C2(C)CC2)C(=O)N(C)[C@@H](C(C)O)C(=O)N[C@H](Cc2ccccc2)C(=O)N1 (some centres unmarked) [Compound 1746] | 
20 |  | 50 to 100 | 99.4 | 39 ± 44 | 8 ± 1 | 106 ± 13 | CC[C@@H]1C#Cc2ccccc2OCCN[C@@H](C(C)C)C(=O)N(C)[C@@H](C(C)O)C(=O)N[C@H](Cc2c[nH]c3ccccc23)C(=O)N1 (some centres unmarked) [Compound 1754] | 
21 |  | 50 to 100 | 99.3 | 7 ± 4 | 12 ± 13 | 123 ± 28 | CC[C@@H]1C#Cc2ccc(F)cc2OCCN[C@@H](C(C)C)C(=O)N(C)[C@@H](C(C)O)C(=O)N[C@H](Cc2c[nH]c3ccccc23)C(=O)N1 (some centres unmarked) [Compound 1755] | 
22 | 26 |  |  |  |  |  | CC(O)[C@H]1C(=O)N[C@H](Cc2ccccc2)C(=O)NCC#Cc2ccc(F)cc2OCCN[C@@H](C2(C)CC2)C(=O)N1C (some centres unmarked) [Compound 1918] | IC50 [1]: 50 to 100 nM; clearance [4, 8]: 14 ± 7 mL/min/kg; half-life [4, 8]: 114 ± 53 min; IC50 (CYP2D6): 8.1 µM; IC50 (CYP3A4): 16.3 µM
